Data as given in patent US6509319B1, “EDTA and other chelators with or without antifungal antimicrobial agents for the prevention and treatment of fungal infections” (Board of Regents, The University of Texas System, priority 1997, dated 2003).

How the values were obtained:
[1] = cited from earlier work
Aspergillus flavus = details: 0.35 mg EDTA per mL, in vitro
Protocol: (§1) These figures are discussed elsewhere in the Detailed Description section. A spectrophotometer was used at a frequency of 660 nm to measure the absorbency of the solution.
(§2) For molds, all inocula were started at 1×10^4 conidia/mL. For yeast and bacteria, all inocula were started at 1×10^6 cfu/mL. The medium used was Mueller-Hinton.
(§3) The concentration of chelator in these studies was 0.35 mg EDTA per mL water.

Aspergillus terreus = details: 0.35 mg EDTA per mL, Mueller-Hinton, in vitro
Protocol: as §1, §2, §3

Candida krusei = details: 0.35 mg EDTA per mL, in vitro
Protocol: as §1, §2, §3

Fusarium oxysporum = details: 0.35 mg EDTA per mL, Mueller-Hinton, in vitro
Protocol: as §1, §2, §3

Row | Structure (SMILES) | solubility in aqueous solution [1] | inhibitory effect on growth relative to the control population (Aspergillus flavus; Mueller-Hinton) | time after application from which the inhibitory effect is most clearly noticeable (Aspergillus flavus) [h] | inhibitory effect on growth (Aspergillus terreus) | inhibitory effect on growth (Candida krusei; Mueller-Hinton) | time after contact at which the inhibitory effect is noticeable (Candida krusei) | inhibitory effect on growth (Fusarium oxysporum)
1 | C[C@@H]1[C@H](O)[C@@H](C)/C=C/C=C/C=C/C=C/C=C/C=C/C=C/[C@H](O[C@@H]2O[C@H](C)[C@@H](O)[C@H](N)[C@@H]2O)C[C@@H]2O[C@](O)(C[C@@H](O)C[C@@H](O)[C@H](O)CC[C@@H](O)C[C@@H](O)CC(=O)O[C@H]1C)C[C@H](O)[C@H]2C(=O)O [Amphotericin B] | not soluble | – | – | – | – | – | –
2 | O=C(O)CN(CCN(CC(=O)O)CC(=O)O)CC(=O)O [EDTA, Ethylenediamine-N,N,N′,N′,-tetraacetic acid] | – | inhibitory effect | 12 | inhibitory effect | inhibitory effect | only a few hours | inhibitory effect
